Source: the NIST ThermoML archive (doi:10.1016/j.jct.2005.08.001)
Numbers after ± are expanded uncertainties.

Columns and labels:
[1] = 313.15 K, Liquid; for mass density: 101.33 kPa, Pycnometric method; for vapor or sublimation pressure: Closed cell (Static) method
[2] = refractive index (Na D-line) (dimensionless); settings: 298.15 K; 101.33 kPa; Liquid; Standard Abbe refractometry

Structure (SMILES) | mass density [1] | vapor or sublimation pressure [1] | refractive index [2]
CC(=O)N(C)C [N,N-dimethylethanamide] | 922.4 ± 0.6 kg/m3 | 0.658 ± 0.01 kPa | 1.43556 ± 0.00075
O [water] | – | 7.375 ± 0.025 kPa | –
CCO [ethanol] | 772.2 ± 0.5 kg/m3 | 17.89 ± 0.087 kPa | 1.3592 ± 0.00075
